According to ChEMBL document CHEMBL5532661, “Discovery of a Novel Glucagon-like Peptide-1 (GLP-1) Analogue from Bullfrog and Investigation of Its Potential for Designing GLP-1-Based Multiagonists” (J Med Chem, 2024):
Active and inactive are the calls of the source. The calls are words filed in the database; no cut-off is given here. Numbered stars: 1 amine (or outer) side, 2 acyl side, 3 side chain; on linkers, the order of the positions; unused ones are H or OH. Square brackets hold non-standard residues; d marks the D form. Side chains are listed from the residue outwards. Peptide text beside a SMILES is read from it. * marks the point of attachment. C18 diacid = O=C(O)CCCCCCCCCCCCCCCCC(=O)*; γGlu = O=C(O)[C@H](CCC(=O)[*:2])N[*:1]; AEEA = NCCOCCOCC(=O)O; Aib = CC(C)(N)C(=O)O

Key:
[1] = biological target: T1, Glucagon-like peptide 1 receptor (Mus musculus) (UniProt O35659); test: Agonist activity at mouse GLP-1 receptor expressed in HEK293 cells assessed as cAMP level measured after 60 mins by HTRF based assay; assay type: functional, cell-based; details: filed as agonist
T1 sequence (whole entry): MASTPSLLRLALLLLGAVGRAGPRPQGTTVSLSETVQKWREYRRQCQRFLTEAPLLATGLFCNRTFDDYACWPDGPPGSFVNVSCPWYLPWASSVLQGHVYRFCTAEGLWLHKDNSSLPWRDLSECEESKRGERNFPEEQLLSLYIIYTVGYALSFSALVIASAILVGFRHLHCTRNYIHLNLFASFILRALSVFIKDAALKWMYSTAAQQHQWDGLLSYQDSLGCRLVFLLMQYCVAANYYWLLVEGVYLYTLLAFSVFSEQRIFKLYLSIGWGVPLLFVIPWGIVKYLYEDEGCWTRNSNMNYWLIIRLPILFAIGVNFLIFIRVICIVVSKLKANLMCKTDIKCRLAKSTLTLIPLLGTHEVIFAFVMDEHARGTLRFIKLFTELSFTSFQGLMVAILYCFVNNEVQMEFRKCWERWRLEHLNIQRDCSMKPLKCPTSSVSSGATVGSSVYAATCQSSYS

[2] = biological target: T2, Glucagon-like peptide 1 receptor (Homo sapiens, UniProt P43220); test: Agonist activity at human GLP-1 receptor expressed in HEK293 cells assessed as cAMP level measured after 60 mins by HTRF based assay; assay type: functional, cell-based
[3] = system: Mus musculus; test: Reduction in hepatic lipid content in DIO mouse at 30 nmol/kg, sc treated every 2 and half day once measured after 21 days by H and E staining based assay; assay type: functional, organism-based; details: time 21.0 day
[4] = biological target: T3, Gastric inhibitory polypeptide receptor (Homo sapiens, UniProt P48546); test: Agonist activity at human GIPR receptor expressed in HEK293 cells assessed as cAMP level measured after 60 mins by HTRF based assay; assay type: functional, cell-based
T3 sequence (P48546 whole entry): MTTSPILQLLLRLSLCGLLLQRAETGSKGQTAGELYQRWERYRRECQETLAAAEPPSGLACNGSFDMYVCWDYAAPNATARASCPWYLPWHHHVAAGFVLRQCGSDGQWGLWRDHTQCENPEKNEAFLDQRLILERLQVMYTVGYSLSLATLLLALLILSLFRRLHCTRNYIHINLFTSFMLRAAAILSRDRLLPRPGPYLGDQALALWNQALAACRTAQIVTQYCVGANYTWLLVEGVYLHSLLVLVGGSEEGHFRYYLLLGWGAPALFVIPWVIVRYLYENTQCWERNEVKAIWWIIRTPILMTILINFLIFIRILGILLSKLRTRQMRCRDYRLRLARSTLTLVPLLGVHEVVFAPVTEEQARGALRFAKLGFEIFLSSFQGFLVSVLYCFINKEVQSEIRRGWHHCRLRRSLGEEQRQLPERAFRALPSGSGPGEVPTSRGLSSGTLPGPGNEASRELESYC

[5] = biological target: T4, Gastric inhibitory polypeptide receptor (Homo sapiens) (UniProt P48546); test: Agonist activity at human GIPR receptor expressed in HEK293 cells assessed as cAMP level by measuring relative percent (GIP EC50/compound EC50) measured after 60 mins by HTRF based assay relative to GIP; assay type: functional, cell-based
T4 sequence (whole entry): T3 sequence (P48546 whole entry)

[6] = system: Mus musculus; test: Reduction in serum AST in DIO mouse at 30 nmol/kg, sc treated every 2 and half day once measured after 21 days; assay type: functional, organism-based; details: time 21.0 day
[7] = biological target: Glucagon receptor (Mus musculus) (UniProt Q61606); test: Potency index, ratio of glucagon EC50 to test compound EC50 for agonist activity at mouse GCGR expressed in HEK293 cells assessed as cAMP level measured after 60 mins by HTRF based assay; assay type: functional, cell-based; details: filed as agonist
[8] = system: Mus musculus; test: Anorexigenic effect in sc dosed ICR mouse assessed as decrease in food intake measured upto 72 hrs by acute food intake study; assay type: functional, organism-based; details: dose 10-100 nmol/kg
[9] = system: Mus musculus; test: Hypoglycemic effect in ICR mouse treated with 3 g/kg glucose assessed as reduction in blood glucose level at 100 nmol/kg, sc measured upto 120 mins by acute glucose lowering test; assay type: functional, organism-based
[10] = system: Mus musculus; test: Antihyperglycemic effect in DIO mouse assessed as antihyperglycemic duration by measuring blood glucose at 30 nmol/kg, sc measured after 48 hrs by hypoglycemic duration assay; assay type: functional, organism-based
[11] = biological target: T1, Glucagon-like peptide 1 receptor (Mus musculus); test: Potency index, ratio of GLP-1 EC50 to test compound EC50 for agonist activity at mouse GLP-1 receptor expressed in HEK293 cells assessed as cAMP level measured after 60 mins by HTRF based assay; assay type: functional, cell-based; details: filed as agonist
[12] = system: Mus musculus; test: Hypoglycemic effect in ICR mouse treated with 3 g/kg glucose assessed as reduction in blood glucose level at 30 nmol/kg, sc measured upto 120 mins pretreated with GLP-1R and GIPR antagonist by OGTT; assay type: functional, organism-based
[13] = biological target: T2, Glucagon-like peptide 1 receptor; test: Agonist activity at human GLP-1 receptor expressed in HEK293 cells assessed as cAMP level by measuring relative percent (GLP-1 EC50/compound EC50) measured after 60 mins by HTRF based assay relative to GLP-1; assay type: functional, cell-based; details: filed as agonist
[14] = system: Mus musculus; test: Reduction in total cholesterol in DIO mouse at 30 nmol/kg, sc treated every 2 and half day once measured after 21 days; assay type: functional, organism-based; details: time 21.0 day
[15] = system: Mus musculus; test: Reduction in body weight in DIO mouse at 30 nmol/kg, sc treated every 2 and half day once measured after 21 days; assay type: functional; set-up: scale not given: the % may be the effect or the level left; details: time 21 day
[16] = system: Mus musculus; test: Hypoglycemic effect in ICR mouse treated with 3 g/kg glucose assessed as reduction in blood glucose level at 10 nmol/kg, sc measured upto 120 mins by acute glucose lowering test; assay type: functional, organism-based
[17] = system: Mus musculus; test: Antihyperglycemic effect in DIO mouse assessed as antihyperglycemic duration by measuring blood glucose at 30 nmol/kg, sc administered twice daily measured by hypoglycemic duration assay; assay type: functional, organism-based
[18] = system: Mus musculus; test: Reduction in serum ALT in DIO mouse at 30 nmol/kg, sc treated every 2 and half day once measured after 21 days; assay type: functional, organism-based; details: time 21.0 day
[19] = system: Mus musculus; test: Reduction in blood glucose level in non-fasting DIO mouse at 30 nmol/kg, sc treated every 2 and half day once measured after 21 days by glucose tolerance test; assay type: functional, organism-based; details: time 21.0 day
[20] = system: Mus musculus; test: Anorexigenic effect in ICR mouse assessed as decrease in food intake at 10 nmol/kg, sc measured upto 72 hrs by acute food intake study; assay type: functional, organism-based
[21] = system: Mus musculus; test: Antihyperglycemic effect in DIO mouse assessed as prolonged antihyperglycemic duration by measuring blood glucose at 100 nmol/kg, sc; assay type: functional, organism-based
[22] = system: Mus musculus; test: Reduction in serum triglyceride in DIO mouse at 30 nmol/kg, sc treated every 2 and half day once measured after 21 days; assay type: functional, organism-based; details: time 21.0 day
[23] = biological target: Glucagon receptor (Mus musculus) (UniProt Q61606); test: Agonist activity at mouse GCGR receptor expressed in HEK293 cells assessed as cAMP level measured after 60 mins by HTRF based assay; assay type: functional, cell-based; details: filed as agonist
[24] = system: Mus musculus; test: Reduction in feed intake in DIO mouse at 30 nmol/kg, sc treated twice a day measured after 21 days; assay type: functional, organism-based; details: time 21.0 day
[25] = biological target: T5, Glucagon receptor (Homo sapiens, UniProt P47871); test: Agonist activity at human GCGR expressed in HEK293 cells assessed as cAMP level by measuring relative percent (glucagon EC50/compound EC50) measured after 60 mins by HTRF based assay relative to glucagon; assay type: functional, cell-based; details: filed as agonist
[26] = system: Mus musculus; test: Anorexigenic effect in ICR mouse assessed as decrease in food intake at 30 nmol/kg, sc measured upto 72 hrs by acute food intake study; assay type: functional, organism-based
[27] = biological target: T5, Glucagon receptor; test: Agonist activity at human GCGR expressed in HEK293 cells assessed as cAMP level measured after 60 mins by HTRF based assay; assay type: functional, cell-based
[28] = system: Mus musculus; test: Reduction in total fat mass in DIO mouse at 30 nmol/kg, sc treated every 2 and half day once measured after 21 days; assay type: functional, organism-based; details: time 21.0 day

T2 sequence (P43220 whole entry): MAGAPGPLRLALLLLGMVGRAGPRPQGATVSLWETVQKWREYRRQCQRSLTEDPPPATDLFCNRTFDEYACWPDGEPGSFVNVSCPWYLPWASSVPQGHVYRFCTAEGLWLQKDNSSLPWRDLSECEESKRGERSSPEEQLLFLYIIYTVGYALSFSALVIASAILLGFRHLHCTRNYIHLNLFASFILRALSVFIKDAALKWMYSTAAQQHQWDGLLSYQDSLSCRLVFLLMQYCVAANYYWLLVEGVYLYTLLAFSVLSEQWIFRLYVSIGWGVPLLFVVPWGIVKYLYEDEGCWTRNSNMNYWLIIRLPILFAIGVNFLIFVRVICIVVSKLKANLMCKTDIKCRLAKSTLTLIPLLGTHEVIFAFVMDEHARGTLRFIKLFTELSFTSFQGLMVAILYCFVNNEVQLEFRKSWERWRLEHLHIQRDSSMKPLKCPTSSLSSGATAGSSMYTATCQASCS
T5 sequence (P47871 whole entry): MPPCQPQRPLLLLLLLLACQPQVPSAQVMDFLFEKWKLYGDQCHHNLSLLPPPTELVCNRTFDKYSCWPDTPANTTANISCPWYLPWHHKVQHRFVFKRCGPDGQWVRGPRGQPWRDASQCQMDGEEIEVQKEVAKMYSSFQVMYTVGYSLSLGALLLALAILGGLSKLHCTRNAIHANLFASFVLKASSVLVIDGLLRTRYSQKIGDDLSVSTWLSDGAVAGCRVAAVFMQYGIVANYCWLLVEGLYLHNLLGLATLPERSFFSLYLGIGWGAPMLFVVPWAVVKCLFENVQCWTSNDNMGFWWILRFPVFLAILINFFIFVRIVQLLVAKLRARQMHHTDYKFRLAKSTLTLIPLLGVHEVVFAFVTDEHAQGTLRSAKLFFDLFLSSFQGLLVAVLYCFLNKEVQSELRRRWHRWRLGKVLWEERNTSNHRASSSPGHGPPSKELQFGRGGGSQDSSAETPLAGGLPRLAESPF
Glucagon receptor (Mus musculus), sequence (Q61606 whole entry): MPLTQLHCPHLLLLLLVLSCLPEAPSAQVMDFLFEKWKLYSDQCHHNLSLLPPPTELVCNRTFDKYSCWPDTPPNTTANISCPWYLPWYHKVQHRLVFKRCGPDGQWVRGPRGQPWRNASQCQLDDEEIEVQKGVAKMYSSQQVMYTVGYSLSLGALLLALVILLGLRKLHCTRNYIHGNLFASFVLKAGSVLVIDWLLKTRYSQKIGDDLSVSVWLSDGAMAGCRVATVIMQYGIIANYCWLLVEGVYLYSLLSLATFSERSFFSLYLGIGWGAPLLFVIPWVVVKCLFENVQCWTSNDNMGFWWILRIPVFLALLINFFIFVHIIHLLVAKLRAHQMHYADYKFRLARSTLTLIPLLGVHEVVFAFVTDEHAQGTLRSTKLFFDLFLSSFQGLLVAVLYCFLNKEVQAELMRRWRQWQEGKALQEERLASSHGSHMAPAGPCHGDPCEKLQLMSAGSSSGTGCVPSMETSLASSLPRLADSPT

With `CC[C@H](C)[C@H](NC(=O)[C@H](CCCCNC(=O)COCCOCCNC(=O)COCCOCCNC(=O)CC[C@H](NC(=O)CCCCCCCCCCCCCCCCC(=O)O)C(=O)O)NC(=O)[C@H](CCC(=O)O)NC(=O)[C@H](CC(C)C)NC(=O)[C@H](C)NC(=O)[C@H](CCCNC(=N)N)NC(=O)[C@H](CO)NC(=O)[C@H](CCSC)NC(=O)[C@H](CC(=O)O)NC(=O)[C@H](CO)NC(=O)[C@@H](NC(=O)[C@H](Cc1ccccc1)NC(=O)[C@@H](NC(=O)CNC(=O)[C@H](CCC(N)=O)NC(=O)C(C)(C)NC(=O)[C@@H](N)Cc1c[nH]cn1)[C@@H](C)O)[C@@H](C)O)C(=O)N[C@@H](C)C(=O)N[C@@H](C)C(=O)N[C@@H](CCCNC(=N)N)C(=O)N[C@@H](CC(C)C)C(=O)N[C@@H](Cc1ccccc1)C(=O)N[C@H](C(=O)N[C@@H](CC(=O)O)C(=O)N[C@@H](Cc1c[nH]c2ccccc12)C(=O)N[C@@H](CC(C)C)C(=O)N[C@H](C(=O)N[C@@H](CCC(=O)O)C(=O)NCC(=O)NCC(=O)N1CCC[C@H]1C(=O)N[C@@H](CO)C(=O)N[C@@H](CO)C(=O)NCC(=O)N[C@@H](C)C(=O)N1CCC[C@H]1C(=O)N1CCC[C@H]1C(=O)N1CCC[C@H]1C(=O)N[C@@H](CO)C(N)=O)[C@@H](C)CC)C(C)C` (H-H[Aib]QGTFTSDMSRALEK([AEEA-AEEA-γGlu-C18 diacid])IAARLFVDWLIEGGPSSGAPPPS-NH2) the Activity [1] was “Active”, the EC50 [2] was 0.012 nM and the Activity [3] was “Active”. For the same compound, the EC50 [4] was 0.6 nM, the Activity [5] was 4% and the Activity [6] was “Active”. The Ratio EC50 [7] was 1, the Activity [8] was “Dose-Dependent Effect” and the Activity [9] was “Active”. For the same compound, the Activity [10] was “Active”, the Ratio EC50 [11] was 1 and the Activity [12] was “inactive”. The Activity [13] was 442%, the Activity [14] was “Active” and the Activity [15] was 40.7%. The Activity [16] was “Active”, the Activity [17] was “Active” and the Activity [18] was “Active”. The Activity [19] was “Active”, the Activity [20] was “Active” and the Activity [21] was “Active”. The Activity [22] was “Active”, the Activity [23] was “Active” and the Activity [24] was “Active”. For the same compound, the Activity [25] was 71%, the Activity [26] was “Active” and the EC50 [27] was 0.13 nM. For the same compound, the Activity [28] was “Active”.
